# Where a SMILES comes first, the peptide text is derived from it. The star is where a group is joined. Orn(α-tetramethylguanidino) = CN(C)C(=N[C@@H](CCCN)C(=O)*)N(C)C
# Tests used:
# [1] = test system: K. pneumoniae DSM 681 (ATCC 10031); type: cell-based, Klebsiella pneumoniae; conditions: DSM 681, 24 h
# Description: (§1) MICs of P. aeruginosa strains DSM 1117 (ATCC 27853), DSM 3227 (ATCC 19429), and DSM 9644 were determined in a microdilution broth assay using 50 or 100% MHB (11.5 and 23 g/L MHB, respectively) whereas MICs of E. coli DSM 1103 (ATCC 25922) and K. pneumoniae DSM 681 (ATCC 10031) were determined in TSB (30 g/L TSB). Peptides (1 g/L in water) were serially two-fold diluted in a 96-well microtiter plate (PS, sterile, flat bottom) in 50 μL of the corresponding medium to final concentrations of 512–4 μg/mL. Bacteria were grown in nutrient broth overnight and diluted to a cell concentration of 1.5 × 10^7 cells/mL in the corresponding medium. Cell densities were determined by using the McFarland standard as reference. An aliquot (50 μL) of the cell culture was added to each well and incubated (37°C, 24 h). The OD595 was determined in a SpectraMax 340PC (Molecular Devices, Sunnyvale, USA). Additionally, MIC values were also determined for high bacteria densities (5 × 10^8 cells/mL) corresponding to the conditions used for TEM, as described above.
# [2] = test system: P. aeruginosa DSM 1117 (ATCC 27853); type: cell-based, Pseudomonas aeruginosa; conditions: DSM 1117, 24 h
# Description: as §1
# P. aeruginosa elastase = molecular target: T1, P. aeruginosa elastase (Pseudomonas aeruginosa, UniProt P14756); experiment: Elastase assay (proteolytic stability); type: in vitro ADME; conditions: after 6 h, elastase 12 units/mL, pH 8.3, 37°C
# T1 construct: purchased Merck (Darmstadt, Germany)
# Description: A stock solution of P. aeruginosa elastase (0.26 U/μL) was prepared in Tris-HCl (5 mmol/L, pH 8.3) and stored at −80°C. Peptides (0.5 g/L in 5 mmol/L Tris-HCl, pH 8.3) were incubated with elastase (0.012 U/μL) at 37°C under constant shaking (450 rpm) for 0, 0.5, 2, 4, and 6 h. Aliquots (10.5 μL) were precipitated with a mixture of acetonitrile and ethanol (1:1 v/v) containing 0.1% TFA (21 μL), centrifuged, the supernatant transferred into a new tube, and dried in vacuum. Samples were dissolved in aqueous acetonitrile (3% v/v) containing TFA (0.1% v/v) and analyzed by RP-HPLC using the conditions described above.
# P. aeruginosa DSM 1117 = experiment: Transmission electron microscopy, morphological changes; type: cell-based, Pseudomonas aeruginosa; conditions: 1 h
# Description: Peptide-bacteria mixtures were fixed (2% glutaraldehyde, 5 mmol/L CaCl2, 10 mmol/L MgCl2 in 0.1 mol/L sodium cacodylate buffer, pH 7.4) overnight at 4°C. […] Samples were rinsed with distilled water (5 × 10 min), incubated with aqueous uranylacetate (0.5% w/v) for 1 h at 4°C, washed with distilled water (3 × 10 min), and embedded in Epon. The hardened blocks were sectioned (50 nm) on a UCT ultramicrotome (Leica, Vienna, Austria), stained with uranyl acetate and lead citrate on an AC20 system (Leica), and visualized at a Tecnai 12 electron microscope (FEI, Eindhoven, The Netherlands) at 80 kV. Morphological effects were quantified on average for 25 cells per condition.
# [3] = test system: E. coli DSM 1103 (ATCC 25922); type: cell-based, Escherichia coli; conditions: DSM 1103, 24 h
# Description: as §1
# T1 sequence (P14756 198-498): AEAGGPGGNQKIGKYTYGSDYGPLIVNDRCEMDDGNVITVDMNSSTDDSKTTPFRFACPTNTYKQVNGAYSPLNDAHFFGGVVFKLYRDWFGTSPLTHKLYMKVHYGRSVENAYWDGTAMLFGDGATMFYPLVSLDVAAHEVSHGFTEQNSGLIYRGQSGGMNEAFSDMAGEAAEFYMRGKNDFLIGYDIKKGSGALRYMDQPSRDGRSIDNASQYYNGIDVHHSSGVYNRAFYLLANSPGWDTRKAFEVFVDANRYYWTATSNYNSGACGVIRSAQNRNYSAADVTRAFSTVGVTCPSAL
structure (smiles),measurement,setting,value
"CC[C@H](C)[C@H](NC(=O)[C@H](Cc1ccc(O)cc1)NC(=O)[C@@H](NC(=O)[C@@H]1CCCN1C(=O)[C@H](CCCNC(=N)N)NC(=O)[C@H](CC(N)=O)NC(=O)[C@H](CC(N)=O)NC(=O)[C@H](CCCN)N=C(N(C)C)N(C)C)C(C)C)C(=O)N1CCC[C@H]1C(=O)N[C@@H](CCCNC(=N)N)C(=O)N1CCC[C@H]1C(=O)N[C@@H](CCCNC(=N)N)C(=O)N1CCC[C@H]1C(=O)N1CCC[C@H]1C(=O)N[C@@H](Cc1c[nH]cn1)C(=O)N1CCC[C@H]1C(=O)N[C@@H](CCCNC(=N)N)C(=O)N[C@@H](CC(C)C)C(=O)O [Api137, gu-ONNRPVYIPRPRPPHPRL-OH, reference compound] ({Orn(α-tetramethylguanidino)}-NNRPVYIPRPRPPHPRL-OH)",MIC K. pneumoniae DSM 681,[1],16 µg/mL
same,"MIC P. aeruginosa DSM 1117, high inoculum",[2],128 µg/mL
same,Peptide remaining with elastase,P. aeruginosa elastase,fully recovered
same,Cells spongy,P. aeruginosa DSM 1117; 32 µg/mL,0%
same,"DNA/ribosomes relocalization: +++, extremely relocalized",P. aeruginosa DSM 1117; 32 µg/mL,0%
same,"DNA/ribosomes relocalization: +, starting",P. aeruginosa DSM 1117; 32 µg/mL,43%
same,"DNA/ribosomes relocalization: -, no",P. aeruginosa DSM 1117; 32 µg/mL,40%
same,"Membrane: b, broken",P. aeruginosa DSM 1117; 32 µg/mL,0%
same,"Membrane: i, intact",P. aeruginosa DSM 1117; 32 µg/mL,100%
same,"Membrane: r, ruptured",P. aeruginosa DSM 1117; 32 µg/mL,0%
same,"Ribosome clustering: +++, extremely clustered",P. aeruginosa DSM 1117; 32 µg/mL,0%
same,"Ribosome clustering: ++, clustered",P. aeruginosa DSM 1117; 32 µg/mL,0%
same,"Ribosome clustering: +, starting",P. aeruginosa DSM 1117; 32 µg/mL,63%
same,"Ribosome clustering: -, no",P. aeruginosa DSM 1117; 32 µg/mL,37%
same,Vesicle release,P. aeruginosa DSM 1117; 32 µg/mL,43%
same,"dissociated Fragments: ++, long and thin",P. aeruginosa DSM 1117; 32 µg/mL,0%
same,"dissociated Fragments: -, no",P. aeruginosa DSM 1117; 32 µg/mL,87%
same,"dissociated Fragments: LV, large vesicles",P. aeruginosa DSM 1117; 32 µg/mL,0%
same,Cells spongy,P. aeruginosa DSM 1117; 128 µg/mL,0%
same,"DNA/ribosomes relocalization: +++, extremely relocalized",P. aeruginosa DSM 1117; 128 µg/mL,0%
same,"DNA/ribosomes relocalization: +, starting",P. aeruginosa DSM 1117; 128 µg/mL,37%
same,"DNA/ribosomes relocalization: -, no",P. aeruginosa DSM 1117; 128 µg/mL,47%
same,"Membrane: b, broken",P. aeruginosa DSM 1117; 128 µg/mL,0%
same,"Membrane: i, intact",P. aeruginosa DSM 1117; 128 µg/mL,100%
same,"Membrane: r, ruptured",P. aeruginosa DSM 1117; 128 µg/mL,0%
same,"Ribosome clustering: +++, extremely clustered",P. aeruginosa DSM 1117; 128 µg/mL,0%
same,"Ribosome clustering: ++, clustered",P. aeruginosa DSM 1117; 128 µg/mL,0%
same,"Ribosome clustering: +, starting",P. aeruginosa DSM 1117; 128 µg/mL,57%
same,"Ribosome clustering: -, no",P. aeruginosa DSM 1117; 128 µg/mL,43%
same,Vesicle release,P. aeruginosa DSM 1117; 128 µg/mL,47%
same,"dissociated Fragments: ++, long and thin",P. aeruginosa DSM 1117; 128 µg/mL,3%
same,"dissociated Fragments: +, small and thin",P. aeruginosa DSM 1117; 128 µg/mL,10%
same,"dissociated Fragments: -, no",P. aeruginosa DSM 1117; 128 µg/mL,87%
same,"dissociated Fragments: LV, large vesicles",P. aeruginosa DSM 1117; 128 µg/mL,0%
same,Cells spongy,P. aeruginosa DSM 1117; 512 µg/mL,0%
same,"DNA/ribosomes relocalization: +++, extremely relocalized",P. aeruginosa DSM 1117; 512 µg/mL,0%
same,"DNA/ribosomes relocalization: +, starting",P. aeruginosa DSM 1117; 512 µg/mL,40%
same,"DNA/ribosomes relocalization: -, no",P. aeruginosa DSM 1117; 512 µg/mL,47%
same,"Membrane: b, broken",P. aeruginosa DSM 1117; 512 µg/mL,0%
same,"Membrane: i, intact",P. aeruginosa DSM 1117; 512 µg/mL,100%
same,"Membrane: r, ruptured",P. aeruginosa DSM 1117; 512 µg/mL,0%
same,"Ribosome clustering: +++, extremely clustered",P. aeruginosa DSM 1117; 512 µg/mL,0%
same,"Ribosome clustering: ++, clustered",P. aeruginosa DSM 1117; 512 µg/mL,0%
same,"Ribosome clustering: +, starting",P. aeruginosa DSM 1117; 512 µg/mL,30%
same,"Ribosome clustering: -, no",P. aeruginosa DSM 1117; 512 µg/mL,70%
same,Vesicle release,P. aeruginosa DSM 1117; 512 µg/mL,37%
same,"dissociated Fragments: ++, long and thin",P. aeruginosa DSM 1117; 512 µg/mL,3%
same,"dissociated Fragments: +, small and thin",P. aeruginosa DSM 1117; 512 µg/mL,0%
same,"dissociated Fragments: -, no",P. aeruginosa DSM 1117; 512 µg/mL,97%
same,"dissociated Fragments: LV, large vesicles",P. aeruginosa DSM 1117; 512 µg/mL,0%
same,MIC E. coli ATCC 25922,[3],2 µg/mL
same,"MIC E. coli DSM 1103, high inoculum",[3],32 µg/mL
